Tests used:
Assay in all cases: Agar dilution method microbicidal test
Type in all cases: cell-based
[1] = tested on: Streptococcus pyogenes; on Growth on agar plate: key: +: grew; −: did not grow
Procedure: (§1) As microbicidal test method for trans-p-coumaric acid, 3-hydroxypyridine, p-hydroxybenzaldehyde and vanillin, the agar dilution method was employed.
(§2) In agar dilution method, a solution in which a sample is dissolved is serially diluted several times, and each of the diluted sample solutions is mixed with agar medium to prepare plate agars having various sample concentration. Then bacteria is inoculated onto the plate agars. In cases where the sample has a microbicidal activity, the growth of the bacteria on the plates can be inhibited. The lowest concentration which can inhibit the growth of the bacteria is referred to as Minimum Inhibitory Concentration (MIC), thereby judging the degree of a microbicidal activity of the sample.
(§3) First, 400 mg of sample was dissolved in 1 mL of DMSO to prepare 400 mg/mL sample solution. Then 0.5 mL of this 400 mg/mL sample solution was diluted 2-fold to prepare 200 mg/mL sample solution. In the same manner, sample solutions of 100 mg/mL, 50.0 mg/mL, and 25.0 mg/mL were prepared. In addition, 300 mg/mL sample solution was prepared. Thereafter, 0.2 mL of these sample solutions each was mixed with 19.8 mL of BHI (Brain Heart Infusion Agar, Becton Dickinson, MD) medium, thereby preparing agar plates having the sample concentration of 4.0 mg/mL, 3.0 mg/mL, 2.0 mg/mL, 1.0 mg/mL, 0.5 mg/mL, and 0.25 mg/mL in dishes. […] Sterilized water was used for dissolving catechin, because catechin was insoluble in DMSO.
(§4) As test bacteria, 13 kinds of bacteria, i.e., Streptococcus pneumoniae, Streptococcus pyogenes, Enterococcus faecalis, Staphylococcus aureus, Escherichia coli, Salmonella sp., Yersinia enterocolitica, Vibrio parahaemolyticus, Pseudomonas aeruginosa, Bacillus cereus, Bacillus subtilis MB-32, Bacillus subtilis ATCC6633, and Candida sp., were used. These bacteria each was mixed with 2 mL of sterilized MHB^R liquid medium (Mueller Hinton Broth^R, Becton Dickinson, MD) to prepare bacterial suspension having turbidity 1 (bacterial concentration 10^8/mL). Previously, small test tubes were set into each cell of a grating and sterilized, and 1 mL of 13 bacterial suspensions were added into the small test tubes set in the grating, respectively. By using a microplanter (SAKUMA, model: MIT-P), 10 μL aliquot was collected from each test tube set in the grating and transferred to other test tube, and the transferred bacterial suspensions were diluted 100-fold (bacterial concentration 10^6/mL).
(§5) By using the microplanter, 10 μL (bacterial number […]) of this bacterial suspension was inoculated onto the plates containing the sample solution of various concentrations. The plates were incubated for 18 hours in an incubator at 37° C., and then a microbicidal activity of each compound was assessed.

[2] = tested on: Escherichia coli; further: key: +: grew; −: did not grow
Procedure: as §1, §2, §3, §4, §5

[3] = tested on: Bacillus subtilis MB-32; further: key: +: grew; −: did not grow
Procedure: as §1, §2, §3, §4, §5

[4] = tested on: Enterococcus faecalis; further: key: +: grew; −: did not grow
Procedure: as §1, §2, §3, §4, §5

[5] = tested on: Staphylococcus aureus; on Growth on agar plate: key: +: grew; −: did not grow
Procedure: as §1, §2, §3, §4, §5

[6] = tested on: Bacillus cereus; further: key: +: grew; −: did not grow
Procedure: as §1, §2, §3, §4, §5

[7] = tested on: Vibrio parahaemolyticus; on Growth on agar plate: key: +: grew; −: did not grow
Procedure: as §1, §2, §3, §4, §5

[8] = tested on: Bacillus subtilis ATCC6633; conditions: Bacillus subtilis ATCC 6633; further: key: +: grew; −: did not grow
Procedure: as §1, §2, §3, §4, §5

[9] = tested on: Salmonella sp. Further: key: +: grew; −: did not grow.
Procedure: as §1, §2, §3, §4, §5

[10] = tested on: Pseudomonas aeruginosa; on Growth on agar plate: key: +: grew; −: did not grow
Procedure: as §1, §2, §3, §4, §5

[11] = tested on: Yersinia enterocolitica; on Growth on agar plate: key: +: grew; −: did not grow
Procedure: as §1, §2, §3, §4, §5

[12] = tested on: Candida sp. On Growth on agar plate: key: +: grew; −: did not grow.
Procedure: as §1, §2, §3, §4, §5

[13] = tested on: Streptococcus pneumoniae; on Growth on agar plate: key: +: grew; −: did not grow
Procedure: as §1, §2, §3, §4, §5

[14] = BHI agar, 37° C., 18 hours, read-out: MIC

Oc1cccnc1 [3-Hydroxypyridine, 3-hydroxypyridine]
4000 µg/mL: MIC [1, 14] | MIC [5, 14] | MIC [7, 14] | MIC [10, 14] | MIC [11, 14] | MIC [12, 14] | MIC [13, 14]
had an activity: activity (in words) [1] | activity (in words) [5] | activity (in words) [10] | activity (in words) [11] | activity (in words) [12] | activity (in words) [13]
+: Growth on agar plate ([1]; 0.25 mg/mL) | Growth on agar plate ([1]; 0.5 mg/mL) | Growth on agar plate ([1]; 1.0 mg/mL) | Growth on agar plate ([1]; 2.0 mg/mL) | Growth on agar plate ([1]; 3.0 mg/mL) | Growth on agar plate ([2]; 0.25 mg/mL) | Growth on agar plate ([2]; 0.5 mg/mL) | Growth on agar plate ([2]; 1.0 mg/mL) | Growth on agar plate ([2]; 2.0 mg/mL) | Growth on agar plate ([2]; 3.0 mg/mL) | Growth on agar plate ([2]; 4.0 mg/mL) | Growth on agar plate ([3]; 0.25 mg/mL) | Growth on agar plate ([3]; 0.5 mg/mL) | Growth on agar plate ([3]; 1.0 mg/mL) | Growth on agar plate ([3]; 2.0 mg/mL) | Growth on agar plate ([3]; 3.0 mg/mL) | Growth on agar plate ([3]; 4.0 mg/mL) | Growth on agar plate ([4]; 0.25 mg/mL) | Growth on agar plate ([4]; 0.5 mg/mL) | Growth on agar plate ([4]; 1.0 mg/mL) | Growth on agar plate ([4]; 2.0 mg/mL) | Growth on agar plate ([4]; 3.0 mg/mL) | Growth on agar plate ([4]; 4.0 mg/mL) | Growth on agar plate ([5]; 0.25 mg/mL) | Growth on agar plate ([5]; 0.5 mg/mL) | Growth on agar plate ([5]; 1.0 mg/mL) | Growth on agar plate ([5]; 2.0 mg/mL) | Growth on agar plate ([5]; 3.0 mg/mL) | Growth on agar plate ([6]; 0.25 mg/mL) | Growth on agar plate ([6]; 0.5 mg/mL) | Growth on agar plate ([6]; 1.0 mg/mL) | Growth on agar plate ([6]; 2.0 mg/mL) | Growth on agar plate ([6]; 3.0 mg/mL) | Growth on agar plate ([6]; 4.0 mg/mL) | Growth on agar plate ([7]; 0.25 mg/mL) | Growth on agar plate ([7]; 0.5 mg/mL) | Growth on agar plate ([7]; 1.0 mg/mL) | Growth on agar plate ([7]; 2.0 mg/mL) | Growth on agar plate ([7]; 3.0 mg/mL) | Growth on agar plate ([8]; 0.25 mg/mL) | Growth on agar plate ([8]; 0.5 mg/mL) | Growth on agar plate ([8]; 1.0 mg/mL) | Growth on agar plate ([8]; 2.0 mg/mL) | Growth on agar plate ([8]; 3.0 mg/mL) | Growth on agar plate ([8]; 4.0 mg/mL) | Growth on agar plate ([9]; 0.25 mg/mL) | Growth on agar plate ([9]; 0.5 mg/mL) | Growth on agar plate ([9]; 1.0 mg/mL) | Growth on agar plate ([9]; 2.0 mg/mL) | Growth on agar plate ([9]; 3.0 mg/mL) | Growth on agar plate ([9]; 4.0 mg/mL) | Growth on agar plate ([10]; 0.25 mg/mL) | Growth on agar plate ([10]; 0.5 mg/mL) | Growth on agar plate ([10]; 1.0 mg/mL) | Growth on agar plate ([10]; 2.0 mg/mL) | Growth on agar plate ([10]; 3.0 mg/mL) | Growth on agar plate ([11]; 0.25 mg/mL) | Growth on agar plate ([11]; 0.5 mg/mL) | Growth on agar plate ([11]; 1.0 mg/mL) | Growth on agar plate ([11]; 2.0 mg/mL) | Growth on agar plate ([11]; 3.0 mg/mL) | Growth on agar plate ([12]; 0.25 mg/mL) | Growth on agar plate ([12]; 0.5 mg/mL) | Growth on agar plate ([12]; 1.0 mg/mL) | Growth on agar plate ([12]; 2.0 mg/mL) | Growth on agar plate ([12]; 3.0 mg/mL) | Growth on agar plate ([13]; 0.25 mg/mL) | Growth on agar plate ([13]; 0.5 mg/mL) | Growth on agar plate ([13]; 1.0 mg/mL) | Growth on agar plate ([13]; 2.0 mg/mL) | Growth on agar plate ([13]; 3.0 mg/mL)
−: Growth on agar plate ([1]; 4.0 mg/mL) | Growth on agar plate ([5]; 4.0 mg/mL) | Growth on agar plate ([7]; 4.0 mg/mL) | Growth on agar plate ([10]; 4.0 mg/mL) | Growth on agar plate ([11]; 4.0 mg/mL) | Growth on agar plate ([12]; 4.0 mg/mL) | Growth on agar plate ([13]; 4.0 mg/mL)
